Data taken from patent publication US20260250290A1 (BRISTOL-MYERS SQUIBB COMPANY, priority 2023, published 2026).
Counter-ions that a name gives are not always drawn.

Target: T1, full length SGK1 (Homo sapiens, UniProt O00141)
T1 construct: 125 μM full length SGK1 (Life Technologies Part #PR7358A); purchased Life Technologies PR7358A
T1 sequence (O00141 1-431): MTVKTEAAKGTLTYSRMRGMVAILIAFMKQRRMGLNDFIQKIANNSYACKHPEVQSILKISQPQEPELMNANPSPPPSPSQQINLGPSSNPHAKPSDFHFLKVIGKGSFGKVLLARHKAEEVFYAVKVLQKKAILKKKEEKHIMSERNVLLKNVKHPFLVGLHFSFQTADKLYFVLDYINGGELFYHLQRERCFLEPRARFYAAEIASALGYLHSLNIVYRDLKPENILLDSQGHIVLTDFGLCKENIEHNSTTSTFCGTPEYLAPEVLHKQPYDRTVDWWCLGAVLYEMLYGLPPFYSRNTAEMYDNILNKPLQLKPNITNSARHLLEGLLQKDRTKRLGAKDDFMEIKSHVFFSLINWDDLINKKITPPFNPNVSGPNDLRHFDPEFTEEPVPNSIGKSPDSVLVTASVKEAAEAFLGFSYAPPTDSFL
Test: SGK1 inhibition Assay A (Caliper LabChip electrophoretic separation of fluorescent peptide substrate and phosphorylated product)
Assay type: biochemical
Conditions: Assay A; 20 μM ATP, 40 min incubation; read-out: SGK1 IC50

SMILES | IC50 [nM]
COC(=O)N1CC=C(c2cc(N3CCC[C@@H](NC(=O)c4sc5ccccc5c4OC4CNC4)C3)c3c(N)ncnn23)C1 [Example 674, methyl (R)-3-(4-amino-5-(3-(3-(azetidin-3-yloxy)benzo[b]thiophene-2-carboxamido)piperidin-1-yl)pyrrolo[2,1-f][1,2,4]triazin-7-yl)-2,5-dihydro-1H-pyrrole-1-carboxylate] | 85
NC(=O)c1ccc(-c2cc(N3CCC[C@@H](NC(=O)c4sc5ccccc5c4OC4CNC4)C3)c3c(N)ncnn23)cn1 [Example 675, (R)-5-(4-amino-5-(3-(3-(azetidin-3-yloxy)benzo[b]thiophene-2-carboxamido)piperidin-1-yl)pyrrolo[2,1-f][1,2,4]triazin-7-yl)picolinamide] | 25
CC(=O)N1CC=C(c2cc(N3CCC[C@@H](NC(=O)c4sc5ccc(C#N)cc5c4OC4CCN(C(=O)OC(C)(C)C)CC4)C3)c3c(N)ncnn23)C1 [Example 676, tert-butyl (R)-4-((2-((1-(7-(1-acetyl-2,5-dihydro-1H-pyrrol-3-yl)-4-aminopyrrolo[2,1-f][1,2,4]triazin-5-yl)piperidin-3-yl)carbamoyl)-5-cyanobenzo[b]thiophen-3-yl)oxy)piperidine-1-carboxylate] | 117
CC(=O)N1CC=C(c2cc(N3CCC[C@@H](NC(=O)c4sc5ccc(C#N)cc5c4OC4CCNCC4)C3)c3c(N)ncnn23)C1 [Example 677, (R)—N-(1-(7-(1-acetyl-2,5-dihydro-1H-pyrrol-3-yl)-4-aminopyrrolo[2,1-f][1,2,4]triazin-5-yl)piperidin-3-yl)-5-cyano-3-(piperidin-4-yloxy)benzo[b]thiophene-2-carboxamide] | 35
COC(=O)N1CC=C(c2cc(N3CCC[C@@H](NC(=O)c4sc5ccc(C#N)cc5c4OC4CCN(C(=O)OC(C)(C)C)CC4)C3)c3c(N)ncnn23)C1 [Example 678, tert-butyl (R)-4-((2-((1-(4-amino-7-(1-(methoxycarbonyl)-2,5-dihydro-1H-pyrrol-3-yl)pyrrolo[2,1-f][1,2,4]triazin-5-yl)piperidin-3-yl)carbamoyl)-5-cyanobenzo[b]thiophen-3-yl)oxy)piperidine-1-carboxylate] | 477
CC(=O)N1CC=C(c2cc(N3CCC[C@@H](NC(=O)c4cn5ccc(C#N)cc5n4)C3)c3c(N)ncnn23)C1 [Example 679, (R)—N-(1-(7-(1-acetyl-2,5-dihydro-1H-pyrrol-3-yl)-4-aminopyrrolo[2,1-f][1,2,4]triazin-5-yl)piperidin-3-yl)-7-cyanoimidazo[1,2-a]pyridine-2-carboxamide] | 484
CCn1cc(-c2cc(N3CCC[C@@H](NC(=O)c4sc(Cl)cc4OCCN(C)C)C3)c3c(N)ncnn23)ccc1=O [Example 682, (R)—N-(1-(4-amino-7-(1-ethyl-6-oxo-1,6-dihydropyridin-3-yl)pyrrolo[2,1-f][1,2,4]triazin-5-yl)piperidin-3-yl)-5-chloro-3-(2-(dimethylamino)ethoxy)thiophene-2-carboxamide] | 1420
N=c1ccc(-c2cc(N3CCC[C@@H](NC(=O)c4ccc(Cl)s4)C3)c3c(N)ncnn23)cn1C(F)F [Example 683] | 193
COC(=O)N1CC=C(c2cc(N3CCC[C@@H](NC(=O)c4n[nH]c5ccc(C#N)cc45)C3)c3c(N)ncnn23)C1 [Example 684, methyl (R)-3-(4-amino-5-(3-(5-cyano-1H-indazole-3-carboxamido)piperidin-1-yl)pyrrolo[2,1-f][1,2,4]triazin-7-yl)-2,5-dihydro-1H-pyrrole-1-carboxylate] | 261
N#Cc1ccc2[nH]nc(C(=O)N[C@@H]3CCCN(c4cc(-c5cncnc5)n5ncnc(N)c45)C3)c2c1 [Example 685, (R)—N-(1-(4-amino-7-(pyrimidin-5-yl)pyrrolo[2,1-f][1,2,4]triazin-5-yl)piperidin-3-yl)-5-cyano-1H-indazole-3-carboxamide] | 276
COC(=O)N1CC=C(c2cc(N3CCC[C@@H](NC(=O)c4sc5ccc(F)cc5c4OC4CCNCC4)C3)c3c(N)ncnn23)C1 [Example 686, methyl (R)-3-(4-amino-5-(3-(5-fluoro-3-(piperidin-4-yloxy)benzo[b]thiophene-2-carboxamido)piperidin-1-yl)pyrrolo[2,1-f][1,2,4]triazin-7-yl)-2,5-dihydro-1H-pyrrole-1-carboxylate] | 7
Nc1ncnn2c(-c3cncnc3)cc(N3CCC[C@@H](NC(=O)c4sc5ccc(F)cc5c4OC4CCNCC4)C3)c12 [Example 688, (R)—N-(1-(4-amino-7-(pyrimidin-5-yl)pyrrolo[2,1-f][1,2,4]triazin-5-yl)piperidin-3-yl)-5-fluoro-3-(piperidin-4-yloxy)benzo[b]thiophene-2-carboxamide] | 161
COC(=O)N1CC=C(c2cc(N3CCC[C@@H](NC(=O)c4n[nH]c5ccc(N)cc45)C3)c3c(N)ncnn23)C1 [Example 689, methyl (R)-3-(4-amino-5-(3-(5-amino-1H-indazole-3-carboxamido)piperidin-1-yl)pyrrolo[2,1-f][1,2,4]triazin-7-yl)-2,5-dihydro-1H-pyrrole-1-carboxylate] | 53
Nc1ccc2[nH]nc(C(=O)N[C@@H]3CCCN(c4cc(-c5cncnc5)n5ncnc(N)c45)C3)c2c1 [Example 690, (R)-5-amino-N-(1-(4-amino-7-(pyrimidin-5-yl)pyrrolo[2,1-f][1,2,4]triazin-5-yl)piperidin-3-yl)-1H-indazole-3-carboxamide] | 507
Cc1cc(-c2cc(N3CCC[C@@H](NC(=O)c4sc(Cl)cc4OCCN(C)C)C3)c3c(N)ncnn23)cn(C)c1=O [Example 691, (R)—N-(1-(4-amino-7-(1,5-dimethyl-6-oxo-1,6-dihydropyridin-3-yl)pyrrolo[2,1-f][1,2,4]triazin-5-yl)piperidin-3-yl)-5-chloro-3-(2-(dimethylamino)ethoxy)thiophene-2-carboxamide] | 115
CCn1cc(-c2cc(N3CCC[C@@H](NC(=O)c4sc(Cl)cc4OCCN(C)C)C3)c3c(N)ncnn23)cc(C)c1=O [Example 692, (R)—N-(1-(4-amino-7-(1-ethyl-5-methyl-6-oxo-1,6-dihydropyridin-3-yl)pyrrolo[2,1-f][1,2,4]triazin-5-yl)piperidin-3-yl)-5-chloro-3-(2-(dimethylamino)ethoxy)thiophene-2-carboxamide] | 98
Cc1cc(-c2cc(N3CCC[C@@H](NC(=O)c4sc(Cl)cc4OCCN(C)C)C3)c3c(N)ncnn23)cn(C(C)C)c1=O [Example 693, (R)—N-(1-(4-amino-7-(1-isopropyl-5-methyl-6-oxo-1,6-dihydropyridin-3-yl)pyrrolo[2,1-f][1,2,4]triazin-5-yl)piperidin-3-yl)-5-chloro-3-(2-(dimethylamino)ethoxy)thiophene-2-carboxamide] | 69
Cc1cc(-c2cc(N3CCC[C@@H](NC(=O)c4sc(Cl)cc4OCCN(C)C)C3)c3c(N)ncnn23)cn(CC(C)C)c1=O [Example 694, (R)—N-(1-(4-amino-7-(1-isobutyl-5-methyl-6-oxo-1,6-dihydropyridin-3-yl)pyrrolo[2,1-f][1,2,4]triazin-5-yl)piperidin-3-yl)-5-chloro-3-(2-(dimethylamino)ethoxy)thiophene-2-carboxamide] | 103
Nc1ncnn2c(C#Cc3ccncc3)cc(N3CCC[C@@H](NC(=O)c4ccc(Cl)s4)C3)c12 [Example 695, (R)—N-(1-(4-amino-7-(pyridin-4-ylethynyl)pyrrolo[2,1-f][1,2,4]triazin-5-yl)piperidin-3-yl)-5-chlorothiophene-2-carboxamide, TFA salt] | 242
N#Cc1ccc(C(=O)N[C@@H]2CCCN(c3cc(C#N)n4ncnc(N)c34)C2)s1 [Example 696, (R)—N-(1-(4-amino-7-cyanopyrrolo[2,1-f][1,2,4]triazin-5-yl)piperidin-3-yl)-5-cyanothiophene-2-carboxamide] | 80
CC(=O)N1CC=C(c2cc(N3CCC[C@@H](NC(=O)c4cccc(OCCN5CCOCC5)n4)C3)c3c(N)ncnn23)C1 [Example 700, (R)—N-(1-(7-(1-acetyl-2,5-dihydro-1H-pyrrol-3-yl)-4-aminopyrrolo[2,1-f][1,2,4]triazin-5-yl)piperidin-3-yl)-6-(2-morpholinoethoxy)picolinamide] | 25
CC(=O)N1CC=C(c2cc(N3CCC[C@@H](NC(=O)c4cccc(OCCN5CCN(C)CC5)n4)C3)c3c(N)ncnn23)C1 [Example 701, (R)-N-(1-(7-(1-acetyl-2,5-dihydro-1H-pyrrol-3-yl)-4-aminopyrrolo[2,1-f][1,2,4]triazin-5-yl)piperidin-3-yl)-6-(2-(4-methylpiperazin-1-yl)ethoxy)picolinamide] | 11
CC(=O)N1CC=C(c2cc(N3CCC[C@@H](NC(=O)c4cccc(OCCN(C)C)n4)C3)c3c(N)ncnn23)C1 [Example 702, (R)-N-(1-(7-(1-acetyl-2,5-dihydro-1H-pyrrol-3-yl)-4-aminopyrrolo[2,1-f][1,2,4]triazin-5-yl)piperidin-3-yl)-6-(2-(dimethylamino)ethoxy) picolinamide] | 12
CC(=O)N1CC=C(c2cc(N3CCC[C@@H](NC(=O)c4cccc(N5CCOCC5)n4)C3)c3c(N)ncnn23)C1 [Example 703, (R)-N-(1-(7-(1-acetyl-2,5-dihydro-1H-pyrrol-3-yl)-4-aminopyrrolo[2,1-f][1,2,4]triazin-5-yl)piperidin-3-yl)-6-morpholinopicolinamide] | 29
